The text below walks through data of patent US20230346760A1, “AGENTS TO PREVENT TISSUE DAMAGE FROM CLOSTRIDIUM DIFFICILE INFECTIONS BY INHIBITION OF THE GUT-DAMAGING BACTERIAL TOXINS TCDA AND TCDB” (ALBERT EINSTEIN COLLEGE OF MEDICINE, priority 2020, published 2023).

One test concerns the target TcdB (Clostridioides difficile, UniProt P18177). The test can be described thus: Kinetic inhibition of TcdB glucosyltransferase / UDP-glucose hydrolysis. The format is biochemical, Clostridium difficile.
In test [1] the test system is TcdB induced cell rounding of CHO-K1 cells. The format is cell-based.
In a further test the target is T1, TcdB-GTD (Clostridioides difficile, UniProt P18177).
T1 construct: (50 mM HEPES pH 7.5, 100 mM KCl, 4 mM MgCl2, 1 mM MnCl2) and 40 μM TcdB-GTD
T1 sequence (P18177 2-543 limits assumed): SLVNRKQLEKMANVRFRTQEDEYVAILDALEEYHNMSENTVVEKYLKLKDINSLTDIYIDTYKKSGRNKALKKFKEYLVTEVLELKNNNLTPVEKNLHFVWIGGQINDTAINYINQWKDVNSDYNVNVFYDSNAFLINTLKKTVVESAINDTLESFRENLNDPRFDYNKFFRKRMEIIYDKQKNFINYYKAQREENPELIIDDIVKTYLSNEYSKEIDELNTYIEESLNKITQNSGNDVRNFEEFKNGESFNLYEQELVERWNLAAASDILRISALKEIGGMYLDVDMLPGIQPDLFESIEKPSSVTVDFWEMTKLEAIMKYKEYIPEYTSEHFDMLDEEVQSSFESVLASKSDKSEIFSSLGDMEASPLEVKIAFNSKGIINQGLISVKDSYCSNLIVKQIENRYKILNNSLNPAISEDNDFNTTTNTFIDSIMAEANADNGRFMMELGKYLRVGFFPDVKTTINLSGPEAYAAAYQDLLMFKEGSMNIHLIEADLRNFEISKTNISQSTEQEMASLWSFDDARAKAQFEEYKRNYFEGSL
The class given is binding, Clostridium difficile.

The test system of test [2] is TcdA induced apoptosis in HT-29 cells. The format is cell-based.
Test [3] relates to TcdA induced rounding of CHO-K1 cells. The format is cell-based.
The target in test [4] is T2, TcdA (Clostridioides difficile, UniProt P16154). The class given is biochemical, Clostridium difficile.
T2 sequence (P16154 whole entry, looked up): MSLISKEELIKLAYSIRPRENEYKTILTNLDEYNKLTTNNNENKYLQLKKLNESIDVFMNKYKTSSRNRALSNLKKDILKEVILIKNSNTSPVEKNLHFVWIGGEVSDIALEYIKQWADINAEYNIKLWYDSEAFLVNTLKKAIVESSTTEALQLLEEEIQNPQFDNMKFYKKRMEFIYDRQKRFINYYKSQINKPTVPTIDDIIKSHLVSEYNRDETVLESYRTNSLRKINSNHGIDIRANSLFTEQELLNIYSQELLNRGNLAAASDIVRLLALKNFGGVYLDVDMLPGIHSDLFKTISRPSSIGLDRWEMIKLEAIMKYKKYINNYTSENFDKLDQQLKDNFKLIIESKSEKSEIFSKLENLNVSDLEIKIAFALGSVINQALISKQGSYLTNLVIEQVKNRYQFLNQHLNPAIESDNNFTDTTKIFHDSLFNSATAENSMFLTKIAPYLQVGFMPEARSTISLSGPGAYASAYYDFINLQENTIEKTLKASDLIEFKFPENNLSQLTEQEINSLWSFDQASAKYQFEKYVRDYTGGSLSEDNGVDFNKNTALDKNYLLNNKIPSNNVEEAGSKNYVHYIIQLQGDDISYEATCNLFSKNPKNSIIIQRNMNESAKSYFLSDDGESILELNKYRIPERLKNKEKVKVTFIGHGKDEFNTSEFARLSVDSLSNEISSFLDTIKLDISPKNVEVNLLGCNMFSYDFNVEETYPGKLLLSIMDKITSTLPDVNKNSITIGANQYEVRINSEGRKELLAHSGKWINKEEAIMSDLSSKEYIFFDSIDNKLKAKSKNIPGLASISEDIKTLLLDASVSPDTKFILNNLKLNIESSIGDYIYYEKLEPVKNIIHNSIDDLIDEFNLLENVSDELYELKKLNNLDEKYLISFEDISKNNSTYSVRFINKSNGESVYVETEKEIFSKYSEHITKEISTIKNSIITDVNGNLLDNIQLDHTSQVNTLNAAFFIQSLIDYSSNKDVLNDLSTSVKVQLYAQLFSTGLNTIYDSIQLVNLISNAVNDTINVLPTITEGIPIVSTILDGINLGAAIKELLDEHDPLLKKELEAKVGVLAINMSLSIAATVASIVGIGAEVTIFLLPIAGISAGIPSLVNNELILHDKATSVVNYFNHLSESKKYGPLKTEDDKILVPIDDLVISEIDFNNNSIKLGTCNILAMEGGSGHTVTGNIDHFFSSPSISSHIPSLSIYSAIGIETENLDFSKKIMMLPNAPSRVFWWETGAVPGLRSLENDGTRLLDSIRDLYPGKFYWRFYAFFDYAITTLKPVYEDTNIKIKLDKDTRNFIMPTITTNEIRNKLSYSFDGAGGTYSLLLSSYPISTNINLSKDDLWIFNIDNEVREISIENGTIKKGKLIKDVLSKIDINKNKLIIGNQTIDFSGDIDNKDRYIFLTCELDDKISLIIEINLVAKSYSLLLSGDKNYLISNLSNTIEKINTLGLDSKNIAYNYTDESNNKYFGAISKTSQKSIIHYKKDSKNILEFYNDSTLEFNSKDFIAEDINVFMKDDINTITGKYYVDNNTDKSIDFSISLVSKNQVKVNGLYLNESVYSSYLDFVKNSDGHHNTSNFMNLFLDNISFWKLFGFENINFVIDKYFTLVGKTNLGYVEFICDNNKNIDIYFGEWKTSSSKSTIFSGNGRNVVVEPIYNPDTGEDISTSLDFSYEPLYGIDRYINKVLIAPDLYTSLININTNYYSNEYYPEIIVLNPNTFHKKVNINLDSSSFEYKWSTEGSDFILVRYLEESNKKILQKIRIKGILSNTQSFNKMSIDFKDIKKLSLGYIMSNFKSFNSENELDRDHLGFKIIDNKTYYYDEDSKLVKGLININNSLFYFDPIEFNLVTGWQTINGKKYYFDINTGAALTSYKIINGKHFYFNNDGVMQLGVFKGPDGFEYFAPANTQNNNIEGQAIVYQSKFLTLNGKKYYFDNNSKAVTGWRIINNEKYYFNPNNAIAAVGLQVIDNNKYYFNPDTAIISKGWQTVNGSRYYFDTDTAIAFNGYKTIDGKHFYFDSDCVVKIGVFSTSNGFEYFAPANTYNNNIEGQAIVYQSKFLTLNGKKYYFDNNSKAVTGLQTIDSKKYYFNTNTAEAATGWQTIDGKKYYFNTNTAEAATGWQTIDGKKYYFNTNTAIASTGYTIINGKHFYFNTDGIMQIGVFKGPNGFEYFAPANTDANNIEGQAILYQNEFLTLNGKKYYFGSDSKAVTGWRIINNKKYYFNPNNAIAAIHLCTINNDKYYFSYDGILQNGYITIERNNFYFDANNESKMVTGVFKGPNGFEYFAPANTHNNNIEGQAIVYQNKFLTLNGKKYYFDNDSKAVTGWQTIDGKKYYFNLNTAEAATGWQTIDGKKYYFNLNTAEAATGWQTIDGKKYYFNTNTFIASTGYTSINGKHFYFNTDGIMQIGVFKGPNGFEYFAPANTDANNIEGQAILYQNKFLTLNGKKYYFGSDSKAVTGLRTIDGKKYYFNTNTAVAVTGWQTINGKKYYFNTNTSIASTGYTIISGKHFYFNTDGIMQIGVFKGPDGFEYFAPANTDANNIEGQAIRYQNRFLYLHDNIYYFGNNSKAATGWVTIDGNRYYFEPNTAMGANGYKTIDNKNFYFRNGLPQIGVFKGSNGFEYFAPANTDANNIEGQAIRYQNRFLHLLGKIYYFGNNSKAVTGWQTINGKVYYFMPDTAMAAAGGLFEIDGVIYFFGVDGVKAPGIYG
In test [5] the test system is Rac1 glucosylation by TcdA in IMR90 cells. The class given is cell-based.
In test [6] the test system is Rac1 glucosylation by TcdB in IMR90 cells. The class given is cell-based.
The target of test [7] is T2, TcdA. In words: biochemical. The format is binding, Clostridium difficile.

Entries after “also recorded” stand apart in the source; their conditions may differ. Read-outs that look alike come from different tables or passages of the source.

TcdB, sequence (P18177 1-543 limits assumed): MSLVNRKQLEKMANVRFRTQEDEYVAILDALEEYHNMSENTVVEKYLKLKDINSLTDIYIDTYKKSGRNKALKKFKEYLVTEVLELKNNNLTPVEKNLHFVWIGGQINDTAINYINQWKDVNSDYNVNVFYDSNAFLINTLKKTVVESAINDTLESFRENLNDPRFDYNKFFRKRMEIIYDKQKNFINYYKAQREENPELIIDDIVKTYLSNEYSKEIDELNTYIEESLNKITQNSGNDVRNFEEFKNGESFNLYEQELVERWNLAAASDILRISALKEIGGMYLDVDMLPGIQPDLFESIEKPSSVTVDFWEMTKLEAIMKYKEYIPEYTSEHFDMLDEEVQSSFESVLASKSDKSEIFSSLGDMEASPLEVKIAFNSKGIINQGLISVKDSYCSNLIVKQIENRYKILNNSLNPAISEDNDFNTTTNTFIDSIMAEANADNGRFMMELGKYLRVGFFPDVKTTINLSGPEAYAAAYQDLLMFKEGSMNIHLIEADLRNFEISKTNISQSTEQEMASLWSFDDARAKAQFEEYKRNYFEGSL

Take `OC[C@H]1NC[C@H](O)[C@@H](O)[C@@H]1O` [deoxynorjirimycin, reference compound]: on TcdB, the “inhibition of Tcds (in words)” value is “poor inhibition”.
In general, Kd refers to the equilibrium constant for the complex coming apart. As to `OC[C@H]1CNC(O)[C@@H](O)[C@@H]1O` (stereo partly shown) [Noeuromycin, noeuromycin], the “protection from cell rounding” value in test [1] and in test [3] was “prevent rounding” each time. The compound also returned a Kd at TcdB-GTD of 180 ± 69.7 nM. For the same compound, the N at TcdB-GTD was 1.2±0.1. The ΔG at TcdB-GTD was -9.3 ± 0.3 kcal/mol. Further, at TcdB-GTD, the ΔH was -5.2 ± 0.1 kcal/mol. In addition, in test [2], the “apoptosis (Annexin V signal)” value was “prevented apoptosis”. For the same compound, the Ki at TcdA [4] amounted to 200 nM; on TcdB (TcdB-UDP, read-out: Ki), 4000 nM. For the same compound, the “un-glucosylated Rac1 (Mab102) compared to total Rac1” value in test [5] and in [6] was “dose-dependent maintenance of un-glucosylated Rac1” each time.
As for `O=C1O[C@H](CO)[C@@H](O)[C@H](O)[C@H]1O` [Gluconolactone, reference compound], the “inhibition of Tcds (in words)” value at TcdB is on record as “poor inhibitor”.
For `OC[C@H]1CNC[C@@H](O)[C@@H]1O` [Isofagomine, (3R,4R,5R)-5-(hydroxymethyl)-3,4-piperidinediol], in test [1], the “protection from cell rounding” value was “sufficient to protect CHO-K1 cells from rounding; also recorded: prevent rounding”. Moreover, on TcdB-GTD, the ITC binding entry is “no binding”; the affinity, expressed as Kd, was 66.9 ± 19.7 nM; the N was found to be 0.5±0.01; the ΔG was -9.8 ± 0.3 kcal/mol. On TcdB-GTD, the ΔH is -10.3 ± 0.1 kcal/mol and the “−TΔS” value came out at 0.5 ± 0.2 kcal/mol. In addition, the Kd at TcdA [7] came to 7 nM. Besides, the “apoptosis (Annexin V signal)” value in [2] is given as “prevented apoptosis”. The “protection from cell rounding” value in [3] was “prevent rounding”. In addition, the “un-glucosylated Rac1 (Mab102) compared to total Rac1” value in test [5] is recorded as “dose-dependent maintenance of un-glucosylated Rac1”. Moreover, the “un-glucosylated Rac1 (Mab102) compared to total Rac1” value in test [6] is reported as “dose-dependent maintenance of un-glucosylated Rac1”. For the same compound, the Ki on TcdB (in the presence of 2×Ki for UDP, read-out: kinetic Ki (apparent Ki)) amounted to 290 nM. The increase of affinity at TcdB (when UDP is present at 2×Ki) is listed as 3 fold. On TcdB (with respect to UDP-glucose), the mechanism of inhibition result is “uncompetitive”.
